Tested on: mUC patients (IMvigor210)
Experiment: Association between mutations (FMOne panel, single genes and pathways) and response to atezolizumab or TMB
Type: in vivo, human
Text: In addition, DNA was extracted from FFPE 10 micron sections from 293 patients and submitted to a Clinical Laboratory Improvement Amendments (CLIA)-certified, New York State-accredited, and College of American Pathologists (CAP)-accredited laboratory (Foundation Medicine, Cambridge, Mass.) for targeted next-generation sequencing (NGS)-based genomic profiling. Adaptor-ligated DNA underwent hybrid capture for all coding exons of 395 cancer-related genes plus select introns from 31 genes frequently rearranged in cancer (FMOne panel).
Captured libraries were sequenced to a median exon coverage depth of >500× (DNA) or 3M unique reads (RNA) using Agilent SURESELECT® v5 kit at 51 Mb on the ILLUMINA® HISEQ® 2500, and resultant sequences were analyzed for base substitutions, small insertions and deletions (indels), copy number alterations (focal amplifications and homozygous deletions), and gene fusions/rearrangements, as previously described (Frampton et al. Nat. Biotechnol. 31:1023-1031, 2013). Frequent germline variants from the 1000 Genomes Project (dbSNP142) were removed. To maximize mutation-detection accuracy (sensitivity and specificity) in impure clinical specimens, the test was previously optimized and validated to detect base substitutions at a ≥5% mutant allele frequency (MAF), indels with a ≥10% MAF with ≥99% accuracy, and fusions occurring within baited introns/exons with >99% sensitivity (Frampton et al. supra). Known confirmed somatic alterations deposited in the Catalog of Somatic Mutations in Cancer (COSMIC v62) are called at allele frequencies ≥1% (Forbes et al. Nucleic Acids Res. 39:D945-D950, 2011).
From the FMOne panel, tumor mutational burden was calculated from the number of short variants in coding regions (substitutions and indels, including synonymous alterations) that were detected. Known and predicted germline alterations as well as known somatic and likely somatic variants are not counted. The mutation burden per Mb is the number of mutations counted divided by the Mb of genomic target territory of the FMOne panel. Unless otherwise indicated, FMOne-based mutation burden was used for all analyses around mutation burden.
For each gene, a patient was called mutant if a known or likely mutation was reported for that gene. For pathway-based analyses, a patient was called mutant in a pathway if any gene within the pathway was reported to have a known or likely mutation. Otherwise, a patient was considered to be non-mutant. A Fisher's Exact Test was used to determine whether the number of mutant patients differed between responders (complete and partial responders) and non-responders (stable and progressive disease). An association between mutation status and mutation burden was tested using a Wilcoxon Rank Sum Test. Single gene p-values were corrected for the number of tests performed using Benjamini and Hochberg adjustment. For pathway-based analyses, nominal p-values are reported.

atezolizumab: anti-PD-L1 antibody (Genentech), CAS Registry Number 1422185-06-5, also known as MPDL3280A
estimate (IKBKE mutation status vs response (CR/PR vs. SD/PD)): 0
estimate (INPP4B mutation status vs response (CR/PR vs. SD/PD)): 0.00E+00
estimate (IRS2 mutation status vs response (CR/PR vs. SD/PD)): 4.96E−01
estimate (JAK1 mutation status vs response (CR/PR vs. SD/PD)): 0.00E+00
estimate (JAK2 mutation status vs response (CR/PR vs. SD/PD)): 3.33E−01
estimate (JUN mutation status vs response (CR/PR vs. SD/PD)): Inf
estimate (KDM5A mutation status vs response (CR/PR vs. SD/PD)): Inf
estimate (KDM5C mutation status vs response (CR/PR vs. SD/PD)): 3.30E−01
estimate (KDM6A mutation status vs response (CR/PR vs. SD/PD)): 0.5153
estimate (KDR mutation status vs response (CR/PR vs. SD/PD)): 0
estimate (KEAP1 mutation status vs response (CR/PR vs. SD/PD)): 0
estimate (KEL mutation status vs response (CR/PR vs. SD/PD)): 0
estimate (KIT mutation status vs response (CR/PR vs. SD/PD)): 0.3333
estimate (KRAS mutation status vs response (CR/PR vs. SD/PD)): 1.346
estimate (LRP1B mutation status vs response (CR/PR vs. SD/PD)): 0.1555
estimate (LRP6 mutation status vs response (CR/PR vs. SD/PD)): 0
estimate (LYN mutation status vs response (CR/PR vs. SD/PD)): Inf
estimate (LZTR1 mutation status vs response (CR/PR vs. SD/PD)): 0
estimate (MAGI2 mutation status vs response (CR/PR vs. SD/PD)): Inf
estimate (MAP2K4 mutation status vs response (CR/PR vs. SD/PD)): Inf
estimate (MAP3K1 mutation status vs response (CR/PR vs. SD/PD)): 0.3333
estimate (MAP3K13 mutation status vs response (CR/PR vs. SD/PD)): Inf
estimate (MCL1 mutation status vs response (CR/PR vs. SD/PD)): 0.8339
estimate (MDM2 mutation status vs response (CR/PR vs. SD/PD)): 0.4704
estimate (MDM4 mutation status vs response (CR/PR vs. SD/PD)): Inf
estimate (MEN1 mutation status vs response (CR/PR vs. SD/PD)): 0
estimate (MET mutation status vs response (CR/PR vs. SD/PD)): 0
estimate (MITF mutation status vs response (CR/PR vs. SD/PD)): Inf
estimate (MLL2 mutation status vs response (CR/PR vs. SD/PD)): 1.185
estimate (MLL3 mutation status vs response (CR/PR vs. SD/PD)): 0
estimate (MPL mutation status vs response (CR/PR vs. SD/PD)): 0
estimate (MSH2 mutation status vs response (CR/PR vs. SD/PD)): 0.6678
estimate (MSH6 mutation status vs response (CR/PR vs. SD/PD)): 1.346
estimate (MST1R mutation status vs response (CR/PR vs. SD/PD)): Inf
estimate (MTOR mutation status vs response (CR/PR vs. SD/PD)): 0.3333
estimate (MUTYH mutation status vs response (CR/PR vs. SD/PD)): 0.6678
estimate (MYC mutation status vs response (CR/PR vs. SD/PD)): 1.354
estimate (MYCL1 mutation status vs response (CR/PR vs. SD/PD)): 0.6605
estimate (MYCN mutation status vs response (CR/PR vs. SD/PD)): 0.2167
estimate (MYST3 mutation status vs response (CR/PR vs. SD/PD)): 0.6642
estimate (NBN mutation status vs response (CR/PR vs. SD/PD)): 0
estimate (NCOR1 mutation status vs response (CR/PR vs. SD/PD)): 1.179
estimate (NF1 mutation status vs response (CR/PR vs. SD/PD)): 0.4962
estimate (NF2 mutation status vs response (CR/PR vs. SD/PD)): 0.3297
estimate (NFE2L2 mutation status vs response (CR/PR vs. SD/PD)): 0.3333
estimate (NFKBIA mutation status vs response (CR/PR vs. SD/PD)): Inf
estimate (NKX2−1 mutation status vs response (CR/PR vs. SD/PD)): Inf
estimate (NOTCH1 mutation status vs response (CR/PR vs. SD/PD)): 1.005
estimate (NOTCH2 mutation status vs response (CR/PR vs. SD/PD)): 0.6678
estimate (NOTCH3 mutation status vs response (CR/PR vs. SD/PD)): Inf
estimate (NOTCH4 mutation status vs response (CR/PR vs. SD/PD)): 0.6678
estimate (NRAS mutation status vs response (CR/PR vs. SD/PD)): 0
estimate (NTRK1 mutation status vs response (CR/PR vs. SD/PD)): 0
estimate (NTRK3 mutation status vs response (CR/PR vs. SD/PD)): Inf
estimate (NUP93 mutation status vs response (CR/PR vs. SD/PD)): 0.6678
estimate (PALB2 mutation status vs response (CR/PR vs. SD/PD)): 0.6678
estimate (PARK2 mutation status vs response (CR/PR vs. SD/PD)): Inf
estimate (PARP4 mutation status vs response (CR/PR vs. SD/PD)): Inf
estimate (PAX5 mutation status vs response (CR/PR vs. SD/PD)): Inf
estimate (PBRM1 mutation status vs response (CR/PR vs. SD/PD)): 0.1081
estimate (PDCD1LG2 mutation status vs response (CR/PR vs. SD/PD)): 0.6678
estimate (PDGFRA mutation status vs response (CR/PR vs. SD/PD)): 0
estimate (PIK3C2B mutation status vs response (CR/PR vs. SD/PD)): Inf
estimate (PIK3CA mutation status vs response (CR/PR vs. SD/PD)): 0.7935
estimate (PIK3CB mutation status vs response (CR/PR vs. SD/PD)): Inf
estimate (PIK3CG mutation status vs response (CR/PR vs. SD/PD)): 0
estimate (PIK3R1 mutation status vs response (CR/PR vs. SD/PD)): 0.3297
estimate (PIK3R2 mutation status vs response (CR/PR vs. SD/PD)): 0
estimate (PMS2 mutation status vs response (CR/PR vs. SD/PD)): 0
estimate (POLE mutation status vs response (CR/PR vs. SD/PD)): 0
estimate (PRKCI mutation status vs response (CR/PR vs. SD/PD)): 0.6678
estimate (PRSS8 mutation status vs response (CR/PR vs. SD/PD)): 0
estimate (PTCH2 mutation status vs response (CR/PR vs. SD/PD)): 0
estimate (PTEN mutation status vs response (CR/PR vs. SD/PD)): 0.3224
estimate (PTPN11 mutation status vs response (CR/PR vs. SD/PD)): Inf
estimate (PTPRD mutation status vs response (CR/PR vs. SD/PD)): Inf
estimate (RAD50 mutation status vs response (CR/PR vs. SD/PD)): Inf
estimate (RAD51C mutation status vs response (CR/PR vs. SD/PD)): 0
estimate (RAD51 mutation status vs response (CR/PR vs. SD/PD)): Inf
estimate (RAF1 mutation status vs response (CR/PR vs. SD/PD)): 0.5846
estimate (RB1 mutation status vs response (CR/PR vs. SD/PD)): 0.6832
estimate (RBM10 mutation status vs response (CR/PR vs. SD/PD)): 0.7743
estimate (REL mutation status vs response (CR/PR vs. SD/PD)): 0
estimate (RICTOR mutation status vs response (CR/PR vs. SD/PD)): 0.5352
estimate (RNF43 mutation status vs response (CR/PR vs. SD/PD)): 0
estimate (ROS1 mutation status vs response (CR/PR vs. SD/PD)): Inf
estimate (RPA1 mutation status vs response (CR/PR vs. SD/PD)): Inf
estimate (RPTOR mutation status vs response (CR/PR vs. SD/PD)): Inf
estimate (RUNX1 mutation status vs response (CR/PR vs. SD/PD)): 0.3333
estimate (SDHA mutation status vs response (CR/PR vs. SD/PD)): Inf
estimate (SETD2 mutation status vs response (CR/PR vs. SD/PD)): 1.691
estimate (SF3B1 mutation status vs response (CR/PR vs. SD/PD)): 0.1646
estimate (SLIT2 mutation status vs response (CR/PR vs. SD/PD)): Inf
estimate (SMAD2 mutation status vs response (CR/PR vs. SD/PD)): Inf
estimate (SMAD3 mutation status vs response (CR/PR vs. SD/PD)): Inf
estimate (SMAD4 mutation status vs response (CR/PR vs. SD/PD)): Inf
estimate (SMARCA4 mutation status vs response (CR/PR vs. SD/PD)): 0.548
estimate (SOX2 mutation status vs response (CR/PR vs. SD/PD)): Inf
estimate (SOX9 mutation status vs response (CR/PR vs. SD/PD)): Inf
estimate (SOX10 mutation status vs response (CR/PR vs. SD/PD)): Inf
